Among the data in PubChem BioAssay (NCI) are TGI and GI50 values, retold here.

Among the test systems are HOP-62 NSCLC; IGROV1 ovarian; RXF 393 renal; OVCAR-5 ovarian; SK-MEL-2 melanoma; 786-0 renal; OVCAR-8 ovarian; CCRF-CEM leukemia; NCI-H522 lung.
What all share (assay): DTP human tumour cell line panel, 48 h

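In this assay, cells in 96-well plates receive the compound at five concentrations for 48 hours. Endpoints are linearly interpolated between the surrounding concentrations. GI50 = concentration required for 50% inhibition of growth. TGI denotes the concentration required for complete inhibition of growth.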

With `CN(C)CC/C(=N\Nc1ccccc1)c1ccccc1`, the TGI (in general, the concentration giving total growth inhibition) in the assay with HOP-62 NSCLC was 31 µM; with IGROV1 ovarian, greater than 100 µM; with RXF 393 renal it was greater than 100 µM; in the assay with OVCAR-5 ovarian, 30.9 µM; in the assay on SK-MEL-2 melanoma it was 27.2 µM; in the assay on 786-0 renal it was 51.2 µM.
`COc1cccc(-c2nc3sccn3c2-c2ccnc(NCCNS(=O)(=O)c3ccccc3)c2)c1`: the GI50 (usually the concentration giving 50% growth inhibition) in the assay with HOP-62 NSCLC is 4.24 µM; in the assay with OVCAR-8 ovarian, 2.13 µM; in the assay with IGROV1 ovarian, 2.2 µM; in the assay with RXF 393 renal, 2.11 µM; in the assay on CCRF-CEM leukemia, 1.88 µM; with OVCAR-5 ovarian, 5.65 µM. Moreover, the GI50 in the assay with NCI-H522 lung is 2.26 µM; in the assay on SK-MEL-2 melanoma, 1.96 µM; with 786-0 renal, 4 µM. For the same molecule, the TGI in the assay with HOP-62 NSCLC was 67.1 µM; in the assay on OVCAR-8 ovarian it was greater than 100 µM; with IGROV1 ovarian it was greater than 100 µM; with RXF 393 renal, greater than 100 µM; with CCRF-CEM leukemia it was greater than 100 µM; in the assay with OVCAR-5 ovarian, greater than 100 µM. For the same molecule, the TGI in the assay with NCI-H522 lung was 27.6 µM; in the assay on SK-MEL-2 melanoma, 5.96 µM; with 786-0 renal it was greater than 100 µM.
With `Cc1cc(N2CCCC2)nc(NC2CCCC(Nc3ccnc4cc(Cl)ccc34)C2)n1` (stereo not drawn), the GI50 was 1.32 µM in the assay with HOP-62 NSCLC; 1.92 µM in the assay on OVCAR-8 ovarian; 0.967 µM in the assay on IGROV1 ovarian; 1.33 µM in the assay on RXF 393 renal; 0.408 µM with CCRF-CEM leukemia; 1.45 µM with OVCAR-5 ovarian. Also, the GI50 is 1.58 µM with NCI-H522 lung, 1.7 µM with SK-MEL-2 melanoma and 1.45 µM in the assay on 786-0 renal. Besides, the TGI in the assay with HOP-62 NSCLC turned out to be 2.95 µM; in the assay with OVCAR-8 ovarian, 4.39 µM; with IGROV1 ovarian, 3.2 µM; in the assay with RXF 393 renal it was 2.71 µM; in the assay on CCRF-CEM leukemia, 3.37 µM; with OVCAR-5 ovarian, 4.26 µM. Also, the TGI turned out to be 3.21 µM in the assay on NCI-H522 lung, 3.27 µM with SK-MEL-2 melanoma and 2.87 µM in the assay on 786-0 renal.
`CC(C)CNc1nc(-c2ccccc2)nc2ccccc12`: the GI50 in the assay on HOP-62 NSCLC is 17.7 µM; in the assay on OVCAR-8 ovarian it was 15 µM; in the assay with IGROV1 ovarian it was 27.4 µM; in the assay with RXF 393 renal it was 12.7 µM; with CCRF-CEM leukemia, 15.3 µM; in the assay on OVCAR-5 ovarian, 17.4 µM. Moreover, the GI50 in the assay with NCI-H522 lung is 26.3 µM; in the assay with SK-MEL-2 melanoma it was 29.6 µM; in the assay with 786-0 renal it was 14.4 µM. For the same molecule, the TGI is 31.5 µM with HOP-62 NSCLC; 31.8 µM with OVCAR-8 ovarian; greater than 100 µM with IGROV1 ovarian; 31.8 µM in the assay with RXF 393 renal; 36.6 µM with CCRF-CEM leukemia; 32.2 µM in the assay on OVCAR-5 ovarian. In addition, the TGI is greater than 100 µM in the assay with NCI-H522 lung, greater than 100 µM in the assay on SK-MEL-2 melanoma and 27.5 µM with 786-0 renal.
For `CC[Si](CC)(CC)OC[C@]1([C@@H]2COC(C)(C)O2)CC=CC(=O)O1`, the GI50 in the assay on HOP-62 NSCLC is 57.8 µM; with OVCAR-8 ovarian, 26.4 µM; in the assay with RXF 393 renal, 48 µM; with CCRF-CEM leukemia it was 6.46 µM; with OVCAR-5 ovarian it was greater than 100 µM; in the assay with NCI-H522 lung, 35.4 µM. Also, the GI50 in the assay with SK-MEL-2 melanoma was 41.1 µM; with 786-0 renal it was 38.1 µM. For the same molecule, the TGI with HOP-62 NSCLC was greater than 100 µM; with OVCAR-8 ovarian, 91.8 µM; in the assay on RXF 393 renal, greater than 100 µM; in the assay on CCRF-CEM leukemia, greater than 100 µM; in the assay on OVCAR-5 ovarian, greater than 100 µM; in the assay on NCI-H522 lung, greater than 100 µM. Further, the TGI in the assay with SK-MEL-2 melanoma and in the assay on 786-0 renal was greater than 100 µM each time.
In the case of `CC/C(=C(/CC)c1ccc(O)cc1)c1ccc([O-])cc1.CC/C(=C(/CC)c1ccc(O)cc1)c1ccc([O-])cc1.O=C([CH-]C(=O)c1ccccc1)c1ccccc1.O=C([CH-]C(=O)c1ccccc1)c1ccccc1.[Ti+4]`, the GI50 in the assay with HOP-62 NSCLC was 14.7 µM; in the assay with OVCAR-8 ovarian, 21.5 µM; in the assay with IGROV1 ovarian, 16.1 µM; in the assay on RXF 393 renal, 10.7 µM; in the assay on CCRF-CEM leukemia, 4.57 µM; with OVCAR-5 ovarian, 23.9 µM. Moreover, the GI50 with SK-MEL-2 melanoma is 11.9 µM; in the assay with 786-0 renal, 13.7 µM. Besides, the TGI was 28.3 µM in the assay on HOP-62 NSCLC; 46.3 µM in the assay with OVCAR-8 ovarian; 37.7 µM with IGROV1 ovarian; 25.7 µM in the assay on RXF 393 renal; greater than 100 µM in the assay with CCRF-CEM leukemia; 46.7 µM in the assay with OVCAR-5 ovarian. The TGI is 25.2 µM in the assay on SK-MEL-2 melanoma and 33.1 µM in the assay on 786-0 renal.
With `CC(=O)/C(=C\C1=CCCO1)C(=O)Nc1ccccc1C`, the TGI with HOP-62 NSCLC, in the assay on OVCAR-8 ovarian, in the assay on IGROV1 ovarian, in the assay on RXF 393 renal, in the assay with CCRF-CEM leukemia and in the assay on OVCAR-5 ovarian was greater than 100 µM in each case. Also, the TGI with NCI-H522 lung, with SK-MEL-2 melanoma and in the assay with 786-0 renal was greater than 100 µM each time.
In the case of `CSc1nc(NC(=O)O)c(N(C(C)=O)C(=O)O)c(=O)n1C`, the TGI in the assay with OVCAR-8 ovarian, in the assay with IGROV1 ovarian, in the assay with RXF 393 renal, in the assay with CCRF-CEM leukemia, with OVCAR-5 ovarian and in the assay on SK-MEL-2 melanoma was greater than 100 µM throughout. The TGI with 786-0 renal is greater than 100 µM.
